Experimental data reported in PMC7391767, “Molecular mechanisms underlying menthol binding and activation of TRPM8 ion channel” (Nature Communications, 2020).

How the values were obtained:
Test in all cases: Φ analysis based on single-channel recordings
[1] = molecular target: T1, TRPM8 point mutants at sites 840, 910, 916, 972 (Mus musculus, UniProt Q8R4D5); type: cell-based
T1 construct: expressed in transfected cells; host or cells: HEK293T
Protocol: (§1) Patch-clamp recordings were performed with a HEKA EPC10 amplifier controlled by PatchMaster software (HEKA). Whole-cell recordings were performed at ±80 mV. Patch pipettes were prepared from borosilicate glass and fire-polished to resistance of ~4 MΩ. For whole-cell recording, serial resistance was compensated by 60%. For single-channel recordings, patch pipettes were fire-polished to a higher resistance of 6-to-10 MΩ and then recorded in the inside-out configuration. To maximize the chance of obtaining a patch with only one channel, single-channel recordings were performed about 8 h after transfection. A solution with 130 mM NaCl, 10 mM glucose, 0.2 mM EDTA, and 3 mM HEPES (pH 7.2) was used in both bath and pipette for either whole-cell or single-channel recordings. Membrane potential was clamped at +80 mV for single-channel recordings. Current was sampled at 10 kHz and filtered at 2.9 kHz. All recordings were performed at room temperature (22 °C) with the maximum variation of 1 °C.
(§2) We followed the principle of Φ-analysis described in published literatures in detail[17],[36],[48]. […] At such a high concentration, only the patches showing the activities of one channel was used for analysis. Single-channel data were processed by the QuB software[49] version 1.4 (ref. [50]). Opening and closing events were detected during idealization with the half amplitude method. Using the simple close ↔ open model (Fig. 6a), the forward and backward rates were determined with a deadtime of 0.3-to-0.4 ms. The equilibrium constant was calculated as the ratio of forward and backward rates. Opening rates and equilibrium constants for each mutant at the same residue site were plotted in log scale (Brønsted plot) before fitting with a linear function to determine the Φ value.

[2] = molecular target: T2, TRPM8 point mutants at sites 840, 910, 916, 972 (Mus musculus, UniProt Q8R4D5, T840D); type: cell-based; conditions: TRPM8 840D, mean of single-channel recordings (500um, 1mM)
T2 construct: expressed in transfected cells; host or cells: HEK293T
Protocol: as §1, §2

[3] = molecular target: T3, TRPM8 point mutants at sites 840, 910, 916, 972 (Mus musculus, UniProt Q8R4D5, T840N); type: cell-based; conditions: TRPM8 840N, mean of single-channel recordings (1mM, 5mM)
T3 construct: expressed in transfected cells; host or cells: HEK293T
Protocol: as §1, §2

[4] = molecular target: T4, TRPM8 point mutants at sites 840, 910, 916, 972 (Mus musculus, UniProt Q8R4D5, A910I); type: cell-based; conditions: TRPM8 910I, mean of single-channel recordings (1mM)
T4 construct: expressed in transfected cells; host or cells: HEK293T
Protocol: as §1, §2

[5] = molecular target: T5, TRPM8 point mutants at sites 840, 910, 916, 972 (Mus musculus, UniProt Q8R4D5, P916F); type: cell-based; conditions: TRPM8 916F, mean of single-channel recordings
T5 construct: expressed in transfected cells; host or cells: HEK293T
Protocol: as §1, §2

[6] = molecular target: T6, TRPM8 point mutants at sites 840, 910, 916, 972 (Mus musculus, UniProt Q8R4D5, A910V); type: cell-based; conditions: TRPM8 910V, mean of single-channel recordings (1mM, 500um)
T6 construct: expressed in transfected cells; host or cells: HEK293T
Protocol: as §1, §2

[7] = molecular target: T7, TRPM8 point mutants at sites 840, 910, 916, 972 (Mus musculus, UniProt Q8R4D5, A910G); type: cell-based; conditions: TRPM8 910G, mean of single-channel recordings (200u, 500u, 1mM)
T7 construct: expressed in transfected cells; host or cells: HEK293T
Protocol: as §1, §2

[8] = molecular target: T8, TRPM8 point mutants at sites 840, 910, 916, 972 (Mus musculus, UniProt Q8R4D5, V972I); type: cell-based; conditions: TRPM8 972I, mean of single-channel recordings
T8 construct: expressed in transfected cells; host or cells: HEK293T
Protocol: as §1, §2

[9] = test system: TRPM8 point mutants at sites 840, 910, 916, 972; type: cell-based, mouse; conditions: for Φ value: 5 mM menthol, single-channel, +80 mV
Protocol: as §1, §2

[10] = TRPM8 840T (recordings 1S-AF/2S-AF, 500um, 1mM)
[11] = TRPM8 910A (recordings 1S-AF/2S-AF, 500um, 1mM)
[12] = TRPM8 916P (recordings 1S-AF/2S-AF, 500um, 1mM)
[13] = TRPM8 972V (recordings 1S-AF/2S-AF, 500um, 1mM)
[14] = TRPM8 840A, mean of single-channel recordings (500um)
[15] = TRPM8 910T, mean of single-channel recordings (1mM, 5mM)
[16] = TRPM8 972L, mean of single-channel recordings

T1 sequence (Q8R4D5 whole entry, change not shown): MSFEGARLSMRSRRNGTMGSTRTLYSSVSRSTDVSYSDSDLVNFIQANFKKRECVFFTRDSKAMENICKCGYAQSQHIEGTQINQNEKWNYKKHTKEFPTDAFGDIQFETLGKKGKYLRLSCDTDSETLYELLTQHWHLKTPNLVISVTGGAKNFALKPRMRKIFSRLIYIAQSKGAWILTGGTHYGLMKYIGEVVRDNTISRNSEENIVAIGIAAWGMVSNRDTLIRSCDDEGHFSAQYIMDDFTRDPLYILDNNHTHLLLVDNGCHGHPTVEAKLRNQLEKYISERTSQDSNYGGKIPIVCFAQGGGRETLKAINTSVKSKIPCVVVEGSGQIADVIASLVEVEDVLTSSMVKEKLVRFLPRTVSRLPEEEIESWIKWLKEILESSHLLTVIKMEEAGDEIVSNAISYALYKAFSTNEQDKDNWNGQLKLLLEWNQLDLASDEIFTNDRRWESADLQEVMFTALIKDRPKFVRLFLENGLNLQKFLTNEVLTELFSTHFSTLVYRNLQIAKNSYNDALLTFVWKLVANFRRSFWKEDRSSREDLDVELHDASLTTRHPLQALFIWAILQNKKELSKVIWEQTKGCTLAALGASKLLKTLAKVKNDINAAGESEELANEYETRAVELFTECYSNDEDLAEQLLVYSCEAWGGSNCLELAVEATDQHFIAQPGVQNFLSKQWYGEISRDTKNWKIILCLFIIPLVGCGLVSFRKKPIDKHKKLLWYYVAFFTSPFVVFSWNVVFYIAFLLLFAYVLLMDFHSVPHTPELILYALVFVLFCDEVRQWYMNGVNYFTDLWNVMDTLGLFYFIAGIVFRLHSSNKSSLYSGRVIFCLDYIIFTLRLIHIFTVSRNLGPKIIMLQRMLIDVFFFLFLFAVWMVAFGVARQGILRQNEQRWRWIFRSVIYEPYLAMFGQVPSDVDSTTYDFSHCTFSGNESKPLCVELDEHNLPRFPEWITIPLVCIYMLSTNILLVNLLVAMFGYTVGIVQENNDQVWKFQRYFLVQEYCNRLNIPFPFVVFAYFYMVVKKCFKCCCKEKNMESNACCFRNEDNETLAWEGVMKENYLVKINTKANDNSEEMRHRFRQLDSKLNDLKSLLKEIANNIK
T6 sequence (Q8R4D5 whole entry A910V): as the sequence (Q8R4D5 whole entry, change not shown) above, with A910V counted along it
T2 sequence (Q8R4D5 whole entry T840D): as the sequence (Q8R4D5 whole entry, change not shown) above, with T840D counted along it
T5 sequence (Q8R4D5 whole entry P916F): as the sequence (Q8R4D5 whole entry, change not shown) above, with P916F counted along it
T7 sequence (Q8R4D5 whole entry A910G): as the sequence (Q8R4D5 whole entry, change not shown) above, with A910G counted along it
T3 sequence (Q8R4D5 whole entry T840N): as the sequence (Q8R4D5 whole entry, change not shown) above, with T840N counted along it
T4 sequence (Q8R4D5 whole entry A910I): as the sequence (Q8R4D5 whole entry, change not shown) above, with A910I counted along it
T8 sequence (Q8R4D5 whole entry V972I): as the sequence (Q8R4D5 whole entry, change not shown) above, with V972I counted along it

With `CC(C)[C@@H]1CC[C@@H](C)C[C@H]1O` [menthol, (−)-menthol] the logKeqave [1, 10] was -0.1349, the “ratesave (mean log forward rates)” value [1, 10] was 2.916 and the logKeqave [1, 11] was -0.1349. The “ratesave (mean log forward rates)” value [1, 11] was 2.916, the logKeqave [1, 12] was -0.1349 and the logratesave [1, 12] was 2.916. For the same molecule, the logKeqave [1, 13] was -0.1349, the logratesave [1, 13] was 2.916 and the logKeqave [2] was 0.4314. The “ratesave (mean log forward rates)” value [2] was 3.1375, the logKeqave [3] was 0.1255 and the “ratesave (mean log forward rates)” value [3] was 3.014. The logKeqave [4] was -1.154, the “ratesave (mean log forward rates)” value [4] was 2.135 and the logKeqave [5] was 0.4532. For the same molecule, the logratesave [5] was 3.166, the logKeqave [6] was 0.7613 and the “ratesave (mean log forward rates)” value [6] was 3.348. For the same molecule, the logKeqave [7] was -0.02911, the “ratesave (mean log forward rates)” value [7] was 2.893 and the logKeqave [8] was -0.5254. The logKeqave [9, 14] was -0.9923, the “ratesave (mean log forward rates)” value [9, 14] was 2.126 and the logKeqave [9, 15] was 0.1885. For the same molecule, the “ratesave (mean log forward rates)” value [9, 15] was 3.0067, the logKeqave [9, 16] was 0.4054 and the logratesave [9, 16] was 3.126. For the same molecule, the “phi from single-channel recording” value ([9]; site 840) was 0.7339, the Φ value ([9]; site 840) was 0.73 and the “phi from single-channel recording” value ([9]; site 910) was 0.6331. For the same molecule, the Φ value ([9]; site 910) was 0.63, the “phi from single-channel recording” value ([9]; site 916) was 0.4253 and the Φ value ([9]; site 916) was 0.42. The “phi from single-channel recording” value ([9]; site 972) was 0.711 and the Φ value ([9]; site 972) was 0.71.
